Experimental data as given in PubChem BioAssay AID1919010 (Molecular Pharmacology Branch, DTP, NCI, 2023).

Test system: Hs578T complex spheroid growth, percent test/control
Assay: Anticancer human tumor Hs578T cell line growth inhibition [AhR];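 further: luminescent viability signal as a proxy for spheroid growth; spheroids exposed to agents for one week after three days of growth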
Conditions: for IC50: curve of first compound; for viability, T/C: stronger effect = lower value
Summary of the method: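 Complex tumor spheroids co-cultured with HUVEC and human MSC stroma; AhR antagonists tested in combination with standard-of-care and investigational agents. Top concentration at or near clinical Cmax (else 10 microM), half-log dilutions; growth expressed as percent test/control.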

[1] = second compound 0.1 µM, first compound 0.000949 µM
[2] = second compound 0.1 µM, first compound 0.003 µM
[3] = second compound 0.1 µM, first compound 0.00949 µM
[4] = second compound 0.1 µM, first compound 0.03 µM
[5] = second compound 0.1 µM, first compound 0.0949 µM
[6] = second compound 0.1 µM, first compound 0.3 µM
[7] = second compound 0.316 µM, first compound 0.000949 µM
[8] = second compound 0.316 µM, first compound 0.003 µM
[9] = second compound 0.316 µM, first compound 0.00949 µM
[10] = second compound 0.316 µM, first compound 0.03 µM
[11] = second compound 0.316 µM, first compound 0.0949 µM
[12] = second compound 0.316 µM, first compound 0.3 µM
[13] = second compound 1 µM, first compound 0.000949 µM
[14] = second compound 1 µM, first compound 0.003 µM
[15] = second compound 1 µM, first compound 0.00949 µM
[16] = second compound 1 µM, first compound 0.03 µM
[17] = second compound 1 µM, first compound 0.0949 µM
[18] = second compound 1 µM, first compound 0.3 µM
[19] = second compound 3.16 µM, first compound 0.000949 µM
[20] = second compound 3.16 µM, first compound 0.003 µM
[21] = second compound 3.16 µM, first compound 0.00949 µM
[22] = second compound 3.16 µM, first compound 0.03 µM
[23] = second compound 3.16 µM, first compound 0.0949 µM
[24] = second compound 3.16 µM, first compound 0.3 µM
[25] = second compound 10 µM, first compound 0.000949 µM
[26] = second compound 10 µM, first compound 0.003 µM
[27] = second compound 10 µM, first compound 0.00949 µM
[28] = second compound 10 µM, first compound 0.03 µM
[29] = second compound 10 µM, first compound 0.0949 µM
[30] = second compound 10 µM, first compound 0.3 µM
[31] = second compound 0.1 µM, first compound 0.0316 µM
[32] = second compound 0.1 µM, first compound 0.1 µM
[33] = second compound 0.1 µM, first compound 0.316 µM
[34] = second compound 0.1 µM, first compound 1 µM
[35] = second compound 0.1 µM, first compound 3.16 µM
[36] = second compound 0.1 µM, first compound 10 µM
[37] = second compound 0.316 µM, first compound 0.0316 µM
[38] = second compound 0.316 µM, first compound 0.1 µM
[39] = second compound 0.316 µM, first compound 0.316 µM
[40] = second compound 0.316 µM, first compound 1 µM
[41] = second compound 0.316 µM, first compound 3.16 µM
[42] = second compound 0.316 µM, first compound 10 µM
[43] = second compound 1 µM, first compound 0.0316 µM
[44] = second compound 1 µM, first compound 0.1 µM
[45] = second compound 1 µM, first compound 0.316 µM
[46] = second compound 1 µM, first compound 1 µM
[47] = second compound 1 µM, first compound 3.16 µM
[48] = second compound 1 µM, first compound 10 µM
[49] = second compound 3.16 µM, first compound 0.0316 µM
[50] = second compound 3.16 µM, first compound 0.1 µM
[51] = second compound 3.16 µM, first compound 0.316 µM
[52] = second compound 3.16 µM, first compound 1 µM
[53] = second compound 3.16 µM, first compound 3.16 µM
[54] = second compound 3.16 µM, first compound 10 µM
[55] = second compound 10 µM, first compound 0.0316 µM
[56] = second compound 10 µM, first compound 0.1 µM
[57] = second compound 10 µM, first compound 0.316 µM
[58] = second compound 10 µM, first compound 1 µM
[59] = second compound 10 µM, first compound 3.16 µM
[60] = second compound 10 µM, first compound 10 µM

Compound: CC(C)CC(NC(=O)C(Cc1ccccc1)NC(=O)c1cnccn1)B(O)O (stereo not given) + Cc1ccccc1N=Nc1ccc(NC(=O)c2ccnn2C)c(C)c1
- IC50 (second compound 0.1 µM): 0.00501 µM
- IC50 (second compound 0.316 µM): 0.00498 µM
- IC50 (second compound 1 µM): 0.00547 µM
- IC50 (second compound 3.16 µM): 0.00453 µM
- IC50 (second compound 10 µM): 0.00314 µM
- viability, T/C [1]: 107%
- viability, T/C [2]: 80.8%
- viability, T/C [3]: 11.7%
- viability, T/C [4]: 0.3%
- viability, T/C [5]: 0.81%
- viability, T/C [6]: 0.36%
- viability, T/C [7]: 94.6%
- viability, T/C [8]: 78.1%
- viability, T/C [9]: 14.1%
- viability, T/C [10]: 0.31%
- viability, T/C [11]: 0.28%
- viability, T/C [12]: 0.33%
- viability, T/C [13]: 98.2%
- viability, T/C [14]: 86.1%
- viability, T/C [15]: 16.9%
- viability, T/C [16]: 0.65%
- viability, T/C [17]: 0.44%
- viability, T/C [18]: 1.31%
- viability, T/C [19]: 88.6%
- viability, T/C [20]: 68.7%
- viability, T/C [21]: 16.6%
- viability, T/C [22]: 0.34%
- viability, T/C [23]: 0.39%
- viability, T/C [24]: 0.32%
- viability, T/C [25]: 62.1%
- viability, T/C [26]: 51.2%
- viability, T/C [27]: 16.6%
- viability, T/C [28]: 0.45%
- viability, T/C [29]: 0.83%
- viability, T/C [30]: 0.53%

Compound: CCc1c2c(nc3ccc(O)cc13)-c1cc3c(c(=O)n1C2)COC(=O)[C@]3(O)CC + Cc1ccccc1N=Nc1ccc(NC(=O)c2ccnn2C)c(C)c1
- IC50 (second compound 0.1 µM): 0.0846 µM
- IC50 (second compound 0.316 µM): 0.13 µM
- IC50 (second compound 1 µM): 0.0687 µM
- IC50 (second compound 3.16 µM): 0.0391 µM
- IC50 (second compound 10 µM): 0.00873 µM
- viability, T/C [1]: 77.4%
- viability, T/C [2]: 76.4%
- viability, T/C [3]: 73.1%
- viability, T/C [4]: 57.9%
- viability, T/C [5]: 50.8%
- viability, T/C [6]: 31.5%
- viability, T/C [7]: 91%
- viability, T/C [8]: 78.4%
- viability, T/C [9]: 72.1%
- viability, T/C [10]: 65.4%
- viability, T/C [11]: 53%
- viability, T/C [12]: 41.5%
- viability, T/C [13]: 72.8%
- viability, T/C [14]: 69.4%
- viability, T/C [15]: 69.1%
- viability, T/C [16]: 60.9%
- viability, T/C [17]: 45.7%
- viability, T/C [18]: 36.7%
- viability, T/C [19]: 69.1%
- viability, T/C [20]: 73.8%
- viability, T/C [21]: 62.5%
- viability, T/C [22]: 52%
- viability, T/C [23]: 41.8%
- viability, T/C [24]: 31.9%
- viability, T/C [25]: 60.4%
- viability, T/C [26]: 51.1%
- viability, T/C [27]: 50.7%
- viability, T/C [28]: 46.3%
- viability, T/C [29]: 34.7%
- viability, T/C [30]: 30.3%

Compound: Nc1ccccc1NC(=O)c1ccc(CNC(=O)OCc2cccnc2)cc1 + Cc1ccccc1N=Nc1ccc(NC(=O)c2ccnn2C)c(C)c1
- IC50 (second compound 0.1 µM): 1.32 µM
- IC50 (second compound 0.316 µM): 1.3 µM
- IC50 (second compound 1 µM): 1.48 µM
- IC50 (second compound 3.16 µM): 1.48 µM
- IC50 (second compound 10 µM): 1.32 µM
- viability, T/C [31]: 100%
- viability, T/C [32]: 90.9%
- viability, T/C [33]: 85.2%
- viability, T/C [34]: 62.2%
- viability, T/C [35]: 16.1%
- viability, T/C [36]: 0.74%
- viability, T/C [37]: 100%
- viability, T/C [38]: 86.2%
- viability, T/C [39]: 82.5%
- viability, T/C [40]: 62.1%
- viability, T/C [41]: 16.4%
- viability, T/C [42]: 1.06%
- viability, T/C [43]: 97.6%
- viability, T/C [44]: 95.2%
- viability, T/C [45]: 95.5%
- viability, T/C [46]: 66.4%
- viability, T/C [47]: 17.6%
- viability, T/C [48]: 1.6%
- viability, T/C [49]: 89.5%
- viability, T/C [50]: 79.6%
- viability, T/C [51]: 93.3%
- viability, T/C [52]: 66.2%
- viability, T/C [53]: 16.9%
- viability, T/C [54]: 1.24%
- viability, T/C [55]: 61%
- viability, T/C [56]: 62.5%
- viability, T/C [57]: 64.9%
- viability, T/C [58]: 59.5%
- viability, T/C [59]: 19.6%
- viability, T/C [60]: 1.69%

Compound: O=C(c1cc(Cc2n[nH]c(=O)c3ccccc23)ccc1F)N1CCN(C(=O)C2CC2)CC1 + Cc1ccccc1N=Nc1ccc(NC(=O)c2ccnn2C)c(C)c1
- IC50 (second compound 0.1 µM): > 10 µM
- IC50 (second compound 0.316 µM): > 10 µM
- IC50 (second compound 1 µM): > 10 µM
- IC50 (second compound 3.16 µM): > 10 µM
- IC50 (second compound 10 µM): > 10 µM
- viability, T/C [31]: 96.8%
- viability, T/C [32]: 104%
- viability, T/C [33]: 109%
- viability, T/C [34]: 101%
- viability, T/C [35]: 96.9%
- viability, T/C [36]: 80.9%
- viability, T/C [37]: 101%
- viability, T/C [38]: 107%
- viability, T/C [39]: 100%
- viability, T/C [40]: 101%
- viability, T/C [41]: 88.2%
- viability, T/C [42]: 72.1%
- viability, T/C [43]: 104%
- viability, T/C [44]: 109%
- viability, T/C [45]: 104%
- viability, T/C [46]: 99.6%
- viability, T/C [47]: 104%
- viability, T/C [48]: 81.3%
- viability, T/C [49]: 96.9%
- viability, T/C [50]: 97.7%
- viability, T/C [51]: 94.9%
- viability, T/C [52]: 96.8%
- viability, T/C [53]: 85.9%
- viability, T/C [54]: 72.3%
- viability, T/C [55]: 66.8%
- viability, T/C [56]: 70.7%
- viability, T/C [57]: 76.5%
- viability, T/C [58]: 69.3%
- viability, T/C [59]: 67.6%
- viability, T/C [60]: 63.5%
